Laboratory results: patent US5457106A, “Pyridine derivatives, their production and use” (Takeda Chemical Industries, Ltd., priority 1991, dated 1995)
Where a name gives a salt, the structure may show the parent alone. Read-outs that look alike come from different tables or passages of the source.

Legend:
cyclooxygenase = target: T1, cyclooxygenase (Rattus norvegicus, UniProt Q63921); assay: Cyclooxygenase inhibitory activity (HHT formation from arachidonic acid in rat platelet-rich plasma); assay type: cell-based, rat (Jcl:wistar)
T1 construct: from tissue; host or cells: platelets in platelet-rich plasma from rat abdominal aorta blood (Jcl:wistar, male)
T1 sequence (Q63921 27-602): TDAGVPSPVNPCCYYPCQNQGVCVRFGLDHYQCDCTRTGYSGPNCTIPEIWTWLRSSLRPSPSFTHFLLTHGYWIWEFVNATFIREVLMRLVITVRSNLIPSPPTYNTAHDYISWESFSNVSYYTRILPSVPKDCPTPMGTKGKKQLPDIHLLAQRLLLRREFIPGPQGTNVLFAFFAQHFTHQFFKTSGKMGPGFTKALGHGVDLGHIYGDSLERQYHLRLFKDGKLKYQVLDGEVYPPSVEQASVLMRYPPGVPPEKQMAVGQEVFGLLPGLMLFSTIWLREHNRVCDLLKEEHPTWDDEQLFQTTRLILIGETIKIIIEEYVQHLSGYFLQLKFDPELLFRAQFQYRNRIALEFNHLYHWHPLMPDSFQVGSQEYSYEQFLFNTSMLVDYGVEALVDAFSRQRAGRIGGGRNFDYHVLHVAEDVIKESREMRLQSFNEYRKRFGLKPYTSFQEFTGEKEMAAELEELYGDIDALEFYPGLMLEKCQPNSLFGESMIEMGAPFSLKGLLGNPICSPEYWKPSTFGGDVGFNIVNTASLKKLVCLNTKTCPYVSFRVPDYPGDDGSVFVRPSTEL

5-Lipoxygenase = target: T2, 5-Lipoxygenase (Rattus norvegicus, UniProt P12527); assay: 5-Lipoxygenase inhibitory activity in rat basophilic leukemia cells; assay type: cell-based
T2 construct: rat basophilic leukemia cell suspension; endogenous in cells
T2 sequence (P12527 1-673): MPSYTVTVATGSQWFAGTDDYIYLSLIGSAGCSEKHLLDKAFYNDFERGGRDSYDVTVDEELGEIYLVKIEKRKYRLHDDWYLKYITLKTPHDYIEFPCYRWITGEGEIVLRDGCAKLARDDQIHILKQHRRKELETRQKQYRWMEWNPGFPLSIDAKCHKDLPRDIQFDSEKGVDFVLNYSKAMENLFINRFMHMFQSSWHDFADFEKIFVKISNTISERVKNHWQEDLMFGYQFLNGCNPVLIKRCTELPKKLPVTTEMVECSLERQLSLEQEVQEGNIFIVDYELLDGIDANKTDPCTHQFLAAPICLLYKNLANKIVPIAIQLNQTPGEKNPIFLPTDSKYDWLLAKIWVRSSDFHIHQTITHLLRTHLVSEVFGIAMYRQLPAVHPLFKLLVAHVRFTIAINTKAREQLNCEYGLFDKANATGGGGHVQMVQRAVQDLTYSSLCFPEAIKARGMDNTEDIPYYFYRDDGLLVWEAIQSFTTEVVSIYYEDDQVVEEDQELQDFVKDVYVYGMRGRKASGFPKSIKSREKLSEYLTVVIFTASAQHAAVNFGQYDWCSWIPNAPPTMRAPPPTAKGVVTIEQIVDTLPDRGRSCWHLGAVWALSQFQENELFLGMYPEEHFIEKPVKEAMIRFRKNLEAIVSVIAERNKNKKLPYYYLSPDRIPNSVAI
Experimental: 5-Lipoxygenase Inhibitory Activity […] Then, 0.1 ml of mast cell medium containing 50 μg of arachidonic acid and 1 μg of calcium ionophore (A-23187) were added and the mixture was allowed to stand at 37° C. for 15 minutes. Ethanol (1 ml) was added thereto and the mixture was shaken well, and filtered (Membrane filter, 0.45 μm). […] As a control, the measurement was carried out according to the same manner except that 0.01 ml of the solvent used for dissolving the test compound was used in place of the test compound. The inhibitory percentage (%) was calculated from the following equation to obtain IC50.

[1] = test system: Mouse phenylquinone writhing; assay: Mouse phenylquinone writhing inhibitory activity; assay type: in vivo, mouse (Slc: ICR); settings: Mus musculus, po, 20 min, orally, read-out: Inhibitory percentage (phenylquinone writhing)
Summary of the method: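 Male ICR mice (4 weeks, 17–24 g) dosed orally with compound suspended in 5% gum arabic. After 30 min, 0.02% phenylquinone (0.1 ml/10 g) given i.p.; writhing and stretching responses counted over 20 min.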

[2] = test system: ART (antigen-responding T-cell); assay: In vitro ART (antigen-responding T-cell) proliferation test; assay type: cell-based, Lewis rat; settings: Rattus norvegicus, T-cell, read-out: % Inhibition of ART growth
[3] = test system: Rat carrageenin pedal edema; assay: Rat carrageenin pedal edema inhibitory activity; assay type: in vivo, rat (Jcl: SD); settings: Rattus norvegicus, po, 3 h, 50 mg/kg, orally, 3 hours after carrageenin; read-out: Inhibitory percentage (carrageenin pedal edema)
Experimental: Rat Carrageenin Pedal Edema Inhibitory Activity A Jcl: SD male rat (6 weeks old, weight 160-220 g) was used. After the mesurement of the volume of the dexter hind limb foot pad, a test compound suspended in 5% gum arabic solution was administered orally. Immediately after the administration, water was further administered orally so that the total administration volume of liquid became 5 ml/rat. After one hour, 0.05 ml of 1% carrageenin suspension in physiological saline was injected subcutaneously in the foot pad to induce edema [Winter, […]. and Nuss, G. W.: Proc. Soc. exp. […] Three hours after injection of carrageenin, the volume of the dexter limb was measured, and the edema volume was calculated by the difference between the volume after injection and the volume prior to injection.

ICAM-1 = assay: Adhesion protein expression inhibitory activity, ICAM-1; assay type: cell-based; settings: human umbilical vascular endothelial cells, TNF-α, 360 min
Experimental: Adhesion Protein Expression Inhibitory Activity The various concentrations of test compounds were added to the human umbilical cord-derived vascular endothelial cells [sold by Klabo] which were seeded in the gelatin coat plate and the mixture was incubated at 37° C. for 15 minutes. Then, the human tumor necrosis factor-α[TNF-α; sold by Genzyme] was added therein to the final concentration of 1 ng/ml and incubation was carried out at 37° C. for 3 hours for expression of ELAM-1 and for 6 hours for that of ICAM-I. After the reaction, the cells were fixed using glutaraldhyde and the expression amount of ELAM-1 and ICAM-1 was measured by the cell-ELISA method. That is, the expression was determined by […] the adhesion proteins on the cells in the system using anti-ELAM-1 antibody BBA-2 and anti-ICAM-1 antibody BBA4 as the first antibody as well as horseradish peroxidase-labeled rabbit anti-mouse IgG antibody as the second antibody.

[4] = test system: Mouse acetic acid writhing; assay: Mouse acetic acid writhing inhibitory activity; assay type: in vivo, mouse (Slc: ICR); settings: orally; for inhibition in vivo at 50 mg/kg: Mus musculus, po, 20 min, read-out: Inhibitory percentage (acetic acid writhing); for Inhibitory percentage (acetic acid writhing): 50 mg/kg, hydrochloride
Experimental: Mouse Acetic Acid Writhing Inhibitory Activity
Ten male Slc: ICR mice, 4 weeks old, per 1 group were used. A test compound was administered orally, and after 30 minutes, 0.1 ml/10 g body weight of physiological saline containing 0.6% acetic acid was injected intraperitoneally. For 20 minutes, writhing (in agony condition) response by administration of acetic acid was counted regarding individual animals. The inhibitory percentage relative to the mean response counts of a control group was calculated regarding respective animals in a test compound administration group. The test compound was suspended in 5% gum arabic solution, and the administration volume was 0.2 ml/10 g.

[5] = 5-HETE, read-out: 5-Lipoxygenase inhibitory activity, 5-HETE IC50
[6] = LTB4, read-out: 5-Lipoxygenase inhibitory activity, LTB4 IC50

Row | Structure (SMILES) | IC50 (5-Lipoxygenase; [5]) [µM] | IC50 (5-Lipoxygenase; [6]) [µM] | inhibition at 1 µM [2] [%] | inhibition at 10 µM [2] [%] | also measured
1 | CCCCCCCCCC(=O)NCCCSc1ccncc1 [Example 1] | 16.8 | 16.1 | – | – | IC50 (cyclooxygenase): 1.6 µM; inhibition in vivo at 100 mg/kg ([1]; 100 mg/kg): 61%
2 | CCCCCCCCCC(=O)NCCCSc1ccccn1 [Example 3, 2-[3-(caprylamino)propylthio]pyridine] | 22.2 | 17.5 | – | – | –
3 | O=C1c2ccccc2C(=O)N1CCSc1ccccn1 [Example 4, 2-(2-phthalimidoethylthio)pyridine] | 17.4 | 11.8 | – | – | –
4 | CCCCCCCCCCCC(=O)NCCCSc1ccncc1 [Example 17, 4-[3-(lauroylamino)propylthio]pyridine] | 17.5 | 14.3 | – | – | IC50 (cyclooxygenase): 1.5 µM
5 | CCCCCCCC/C=C\CCCCCCCC(=O)NCCCSc1ccncc1 [Example 21, 4-[3-(oleoylamino)propylthio]pyridine] | 21.5 | 16.4 | – | – | –
6 | O=C(c1ccccc1)N(CCCSc1ccncc1)Cc1ccccc1 [Example 77, 4-[3-(N-benzyl-N-benzoylamino)propylthio]pyridine hydrochloride] | 3.5 | 3.2 | 28 | 85 | inhibition in vivo at 50 mg/kg [1]: 62%
7 | CCCCCCCCCCCCN(CCCSc1ccncc1)C(=O)C(F)(F)F [Example 94, 4-[3-(N-dodecyl-N-trifluoroacetylamino)propylthio]pyridine] | 2.4 | 2 | 33 | 70 | –
8 | O=C1c2ccc([N+](=O)[O-])cc2C(=O)N1CSc1ccncc1 [Example 95, 4-[(4-nitrophthalimido)methylthio]pyridine] | 0.044 | 0.033 | 20 | 32 | –
9 | O=C1c2ccccc2CN1CCCCSc1ccncc1 [Example 109, 4-[4-(isoindolin-1-on-2-yl)butylthio]pyridine] | 1.4 | 1.2 | -11 | -33 | IC50 (cyclooxygenase): 6.2 µM; inhibition in vivo at 50 mg/kg [3]: 25%; inhibition in vivo at 50 mg/kg [1]: 89%
10 | O=C(NCCSc1ccncc1)c1cc2ccccc2s1 [Example 123, 4-[2-(thianaphthene-2-carbonylamino)ethylthio]pyridine] | – | – | 15 | 66 | IC50 (cyclooxygenase): 3.3 µM; Expression Inhibitory Potency, ICAM-1 (ICAM-1; 30 μM): 34%
11 | O=C(NCCCCSc1ccncc1)c1cc2ccccc2s1 [Example 128, 4-[4-(thianaphthene-2-carbonylamino)butylthio]pyridine] | 6.1 | 5.4 | – | – | –
12 | O=C(c1cc2ccccc2s1)N1CCC(Sc2ccncc2)CC1 [Example 133, 4-[4-(thianaphthene-2-carbonyl)piperidylthio]pyridine] | 4.6 | 4.3 | – | – | inhibition in vivo at 50 mg/kg [3]: 27%
13 | O=c1c2ccccc2n(Cc2ccccc2)c(=O)n1CCCCSc1ccncc1 [Example 149, 3-[4-(4-pyridylthio)butyl]-1-benzylquinazolin-2,4-(1H,3H)-dione] | 2.3 | 2.2 | -10 | 19 | –
14 | O=C1SC(=Cc2ccc(Cl)cc2)C(=O)N1CCCCSc1ccncc1 [Example 151, 4-[4-[5-(4-chlorobenzylidene)-2,4-thiazolidinedione]butylthio]pyridine] | 1.8 | 1.1 | -1 | 74 | Expression Inhibitory Potency, ICAM-1 (ICAM-1; 30 μM): 60%
15 | O=C1SC(=Cc2ccccc2)C(=O)N1CCSc1ccncc1 [Example 155, 4-[2-(5-benzylidene-2,4-thiazolidinedione)ethylthio]pyridine] | 3.8 | 3.7 | 4 | 78 | –
16 | CC1(C)OC(=O)N(CCCCSc2ccncc2)C1=O [Example 167, 4-(4-(5,5-dimethyloxazolidine-2,4-dione)butylthio]pyridine] | – | – | – | – | inhibition in vivo at 50 mg/kg [4]: 62%
17 | O=c1c2ccccc2oc(=S)n1CCSc1ccncc1 [Example 170, 4-[2-[2H-1,3-benzoxadine-2-thion-4(3H)-on]ethylthio]pyridine] | – | – | – | – | inhibition in vivo at 50 mg/kg [4]: 91%
18 | O=C1CSC(=O)N1CSc1ccncc1 [Example 176, 4-(2,4-thiazolidinedionemethylthio)pyridine hydrochloride] | – | – | – | – | Inhibitory percentage (acetic acid writhing) [4]: 87%
19 | CC1(C)OC(=O)N(CSc2ccncc2)C1=O [Example 179, 4-(5,5-dimethyloxazolidine-2,4-dionemethylthio)pyridine hydrochloride] | – | – | – | – | Inhibitory percentage (acetic acid writhing) [4]: 66%
20 | O=c1c2ccccc2n(CCCCSc2ccccn2)c(=O)n1CCCCSc1ccccn1 [Example 198, 1,3-bis[4-(2-pyridylthio)butyl]quinazoline-2,4(1H,3H)-dione] | – | – | – | – | Expression Inhibitory Potency, ICAM-1 (ICAM-1; 13 μM): 25%
